Experimental data: PubChem BioAssay (NCI)
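Assay format: 96-well plates, 48-hour exposure. TGI: total growth inhibition.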

Tests used:
Test in all cases: DTP human tumour cell line panel, 48 h
[1] = tested on: RPMI-8226 leukemia
[2] = tested on: UO-31 renal
[3] = tested on: K-562 leukemia
[4] = tested on: SK-MEL-2 melanoma
[5] = tested on: OVCAR-3 ovarian
[6] = tested on: U251 CNS
[7] = tested on: OVCAR-8 ovarian
[8] = tested on: EKVX NSCLC
[9] = tested on: HCT-15 colon
[10] = tested on: OVCAR-4 ovarian
[11] = tested on: LOX IMVI melanoma
[12] = tested on: HT29 colon
[13] = tested on: SNB-78 CNS
[14] = tested on: UACC-257 melanoma
[15] = tested on: 786-0 renal
[16] = tested on: KM20L2 colon
[17] = tested on: HOP-92 NSCLC
[18] = tested on: UACC-62 melanoma
[19] = tested on: SW-620 colon
[20] = tested on: XF 498 CNS
[21] = tested on: CCRF-CEM leukemia
[22] = tested on: HOP-62 NSCLC
[23] = tested on: SF-539 CNS
[24] = tested on: OVCAR-5 ovarian
[25] = tested on: HL-60(TB) leukemia
[26] = tested on: SK-MEL-5 melanoma
[27] = tested on: SF-268 CNS
[28] = tested on: SF-295 CNS
[29] = tested on: M19-MEL melanoma
[30] = tested on: M14 melanoma
[31] = tested on: SNB-75 CNS
[32] = tested on: ACHN renal
[33] = tested on: COLO 205 colon
[34] = tested on: TK-10 renal
[35] = tested on: A549 NSCLC
[36] = tested on: SK-OV-3 ovarian
[37] = tested on: DLD-1 colon
[38] = tested on: HCC-2998 colon
[39] = tested on: SN12C renal
[40] = tested on: NCI-H460 lung
[41] = tested on: SK-MEL-28 melanoma
[42] = tested on: NCI-H226 lung
[43] = tested on: HOP-18 NSCLC
[44] = tested on: MALME-3M melanoma
[45] = tested on: MOLT-4 leukemia
[46] = tested on: KM12 colon
[47] = tested on: RXF 393 renal
[48] = tested on: A498 renal
[49] = tested on: CAKI-1 renal
[50] = tested on: DMS 114 small cell lung
[51] = tested on: SNB-19 CNS
[52] = tested on: NCI-H23 lung
[53] = tested on: HCT-116 colon
[54] = tested on: IGROV1 ovarian
[55] = tested on: NCI-H522 lung
[56] = tested on: SR leukemia
[57] = tested on: LXFL 529 NSCLC
[58] = tested on: DMS 273 small cell lung

CC1CCC2(NC1)OC1CC3[C@@H]4CC=C5C=CCC[C@]5(C)C4CC[C@]3(C)C1C2C (some centres not stated)
TGI [1]: 46 µM | TGI [2]: 68.7 µM | TGI [3]: 46.6 µM | TGI [4]: 35.2 µM | TGI [5]: 80.5 µM | TGI [6]: 88.7 µM | TGI [7]: 48.1 µM | TGI [8]: 55.5 µM | TGI [9]: 48.8 µM | TGI [10]: 51 µM | TGI [11]: 33.6 µM | TGI [12]: 32.1 µM | TGI [13]: > 100 µM | TGI [14]: 49 µM | TGI [15]: 35.5 µM | TGI [16]: 33.8 µM | TGI [17]: 61.8 µM | TGI [18]: 42.5 µM | TGI [19]: 41.2 µM | TGI [20]: 33 µM | TGI [21]: 55.4 µM | TGI [22]: 36.6 µM | TGI [23]: 43.2 µM | TGI [24]: 50 µM | TGI [25]: 29.7 µM | TGI [26]: 30.8 µM | TGI [27]: > 100 µM | TGI [28]: 52.8 µM | TGI [29]: > 100 µM | TGI [30]: 50.9 µM | TGI [31]: 80.6 µM | TGI [32]: 44.6 µM | TGI [33]: 34.6 µM | TGI [34]: 35.3 µM | TGI [35]: 58.5 µM | TGI [36]: 68.4 µM | TGI [37]: 58.2 µM | TGI [38]: 31.4 µM | TGI [39]: 85.8 µM | TGI [40]: 34.1 µM | TGI [41]: 30 µM | TGI [42]: > 100 µM | TGI [43]: > 100 µM | TGI [44]: 35.3 µM | TGI [45]: 66.3 µM | TGI [46]: 44 µM | TGI [47]: > 100 µM | TGI [48]: > 100 µM | TGI [49]: > 100 µM | TGI [50]: 46.8 µM | TGI [51]: > 100 µM | TGI [52]: > 100 µM | TGI [53]: 32.7 µM | TGI [54]: > 100 µM

O=C1c2ccccc2C(=O)c2c1ccc1c2N=C(c2ccc(F)cc2)CC(c2ccc(Cl)c(Cl)c2)N1 (configuration not stated)
TGI [1]: 19.3 µM | TGI [2]: 23.5 µM | TGI [3]: 33.5 µM | TGI [4]: 29.3 µM | TGI [6]: 24.7 µM | TGI [7]: 26.6 µM | TGI [8]: 20.3 µM | TGI [9]: 19.8 µM | TGI [10]: 37 µM | TGI [11]: 18.3 µM | TGI [12]: 26.3 µM | TGI [13]: 41.5 µM | TGI [14]: 50 µM | TGI [16]: 30.8 µM | TGI [55]: 20.4 µM | TGI [17]: 90 µM | TGI [18]: 25.7 µM | TGI [19]: 19 µM | TGI [21]: 17.7 µM | TGI [22]: 58.2 µM | TGI [23]: 34.9 µM | TGI [56]: 54.4 µM | TGI [24]: 28 µM | TGI [57]: 30 µM | TGI [25]: 35.9 µM | TGI [26]: 31 µM | TGI [27]: 32.1 µM | TGI [28]: 28.6 µM | TGI [29]: 40.4 µM | TGI [30]: 37.7 µM | TGI [31]: 40.2 µM | TGI [32]: 27.8 µM | TGI [33]: 33.4 µM | TGI [34]: 34 µM | TGI [35]: 47.6 µM | TGI [36]: 48.9 µM | TGI [37]: 31.8 µM | TGI [38]: 27.8 µM | TGI [39]: 32.4 µM | TGI [40]: 43 µM | TGI [41]: 36 µM | TGI [42]: 65.6 µM | TGI [45]: > 100 µM | TGI [46]: 19.4 µM | TGI [48]: 54.9 µM | TGI [49]: 17 µM | TGI [50]: 21.7 µM | TGI [51]: 25.8 µM | TGI [52]: 33.4 µM | TGI [53]: 23.7 µM | TGI [54]: 23.4 µM

CC(C)COC(=O)N1N=NC2C3OC(CC3=O)C21 (configuration not stated)
TGI [1]: > 100 µM | TGI [2]: > 100 µM | TGI [3]: > 100 µM | TGI [4]: > 100 µM | TGI [5]: > 100 µM | TGI [6]: > 100 µM | TGI [7]: > 100 µM | TGI [8]: > 100 µM | TGI [9]: > 100 µM | TGI [10]: > 100 µM | TGI [11]: > 100 µM | TGI [12]: > 100 µM | TGI [14]: > 100 µM | TGI [58]: > 100 µM | TGI [15]: > 100 µM | TGI [16]: > 100 µM | TGI [55]: > 100 µM | TGI [17]: > 100 µM | TGI [18]: > 100 µM | TGI [19]: > 100 µM | TGI [20]: > 100 µM | TGI [21]: > 100 µM | TGI [22]: > 100 µM | TGI [23]: > 100 µM | TGI [56]: > 100 µM | TGI [24]: > 100 µM | TGI [57]: > 100 µM | TGI [25]: > 100 µM | TGI [26]: > 100 µM | TGI [27]: > 100 µM | TGI [28]: > 100 µM | TGI [29]: > 100 µM | TGI [30]: > 100 µM | TGI [31]: > 100 µM | TGI [32]: > 100 µM | TGI [33]: > 100 µM | TGI [34]: > 100 µM | TGI [36]: > 100 µM | TGI [37]: > 100 µM | TGI [38]: > 100 µM | TGI [39]: > 100 µM | TGI [40]: > 100 µM | TGI [41]: > 100 µM | TGI [42]: > 100 µM | TGI [43]: > 100 µM | TGI [44]: > 100 µM | TGI [45]: > 100 µM | TGI [46]: > 100 µM | TGI [47]: > 100 µM | TGI [48]: > 100 µM | TGI [49]: > 100 µM | TGI [50]: > 100 µM | TGI [51]: > 100 µM | TGI [52]: > 100 µM | TGI [53]: > 100 µM | TGI [54]: > 31.6 µM

CN(C)c1ccc(/C=C/C(=O)C(C)(C)C)cc1Br
TGI [1]: 58.7 µM | TGI [2]: > 100 µM | TGI [3]: 86.3 µM | TGI [4]: 36.7 µM | TGI [5]: > 100 µM | TGI [6]: > 100 µM | TGI [7]: 54.1 µM | TGI [8]: > 100 µM | TGI [9]: 48.6 µM | TGI [10]: 52.2 µM | TGI [12]: > 100 µM | TGI [13]: > 100 µM | TGI [14]: 61.9 µM | TGI [15]: 59 µM | TGI [16]: 79.5 µM | TGI [55]: 31.9 µM | TGI [18]: 34.2 µM | TGI [19]: 60.2 µM | TGI [20]: 30.3 µM | TGI [21]: 85.1 µM | TGI [22]: > 100 µM | TGI [23]: 71 µM | TGI [24]: > 100 µM | TGI [57]: 92.4 µM | TGI [26]: 35.5 µM | TGI [27]: 70 µM | TGI [28]: > 100 µM | TGI [29]: 50.9 µM | TGI [30]: 43.2 µM | TGI [31]: 70.3 µM | TGI [32]: > 100 µM | TGI [33]: 67.2 µM | TGI [34]: 87.3 µM | TGI [35]: > 100 µM | TGI [36]: > 100 µM | TGI [37]: 43.9 µM | TGI [38]: 73.9 µM | TGI [39]: 76 µM | TGI [40]: > 100 µM | TGI [41]: 47.7 µM | TGI [43]: > 100 µM | TGI [44]: > 100 µM | TGI [45]: 71.7 µM | TGI [46]: 56.1 µM | TGI [48]: > 100 µM | TGI [49]: 91.9 µM | TGI [50]: 40.1 µM | TGI [51]: > 100 µM | TGI [52]: 75.9 µM | TGI [53]: 38.1 µM | TGI [54]: > 100 µM
